{"source": "patent US20230320362A1", "about": "“COMPOSITION AND METHOD FOR WEED AND GRASS CONTROL” (United Industries Corporation, priority 2022, published 2023)", "data": [{"system": "weed or grass", "assay": "not given", "details": "Table 1 Notes; cited from earlier work", "values": [{"compound": "O=C(O)c1cc(Oc2ccc(C(F)(F)F)cc2Cl)ccc1[N+](=O)[O-]", "note": "[Acifluorfen]", "residual activity (in words)": "No residual activity"}, {"compound": "Nc1c([N+](=O)[O-])ccc(Oc2ccccc2)c1Cl", "note": "[Aclonifen]", "residual activity (in words)": "Moderate residual activity"}, {"compound": "CCCCCCCCC(=O)O.N", "note": "[Ammonium nonanoate]", "residual activity (in words)": "Top kill, no residual activity"}, {"compound": "Cc1ccc(C(=O)COc2c(C(=O)c3ccc(Cl)c(C)c3Cl)c(C)nn2C)cc1", "note": "[Benzafenap]", "residual activity": "38 days residual activity"}, {"compound": "CS(=O)(=O)c1ccc(C(=O)C2=C(Sc3ccccc3)C3CCC(C3)C2=O)c(Cl)c1", "note": "(stereo not drawn) [Benzobicyclon]", "residual activity": "14 days residual activity"}, {"compound": "COC(=O)c1cc(Oc2ccc(Cl)cc2Cl)ccc1[N+](=O)[O-]", "note": "[Bifenox]", "residual activity (in words)": "Six to eight weeks residual activity"}, {"compound": "C=CCOC(=O)C(C)(C)OC(=O)c1cc(-n2c(=O)cc(C(F)(F)F)n(C)c2=O)ccc1Cl", "note": "[Butafenacil]", "residual activity (in words)": "No residual activity"}, {"compound": "CCCCCCCC(=O)O", "note": "[Caprylic/octanoic acid]", "residual activity (in words)": "No residual activity"}, {"compound": "CCOC(=O)C(Cl)Cc1cc(-n2nc(C)n(C(F)F)c2=O)c(F)cc1Cl", "note": "(stereo not drawn) [Carfentrazone-ethyl]", "residual activity (in words)": "No residual activity"}, {"compound": "CCOC(=O)/C(Cl)=C/c1cc(N2C(=O)C3=C(CCCC3)C2=O)ccc1Cl", "note": "[Cinidon-ethyl]", "residual activity (in words)": "No residual activity"}, {"compound": "c1cc[n+]2c(c1)-c1cccc[n+]1CC2", "note": "[Diquat]", "residual activity (in words)": "No residual activity"}, {"compound": "CCOC(=O)COc1cc(-n2ncc(C(F)(F)F)c(C)c2=O)c(F)cc1Cl", "note": "[Flufenpyr-ethyl]", "residual activity (in words)": "No residual activity"}, {"compound": "CCCCCOC(=O)COc1cc(N2C(=O)C3=C(CCCC3)C2=O)c(F)cc1Cl", "note": "[Flumiclorac pentyl]", "residual activity (in words)": "No residual activity"}, {"compound": "C#CCN1C(=O)COc2cc(F)c(N3C(=O)C4=C(CCCC4)C3=O)cc21", "note": "[Flumioxazin]", "residual activity (in words)": "One to two weeks residual"}, {"compound": "CCOC(=O)COC(=O)c1cc(Oc2ccc(C(F)(F)F)cc2Cl)ccc1[N+](=O)[O-]", "note": "[Fluoroglycofen-ethyl]", "residual activity (in words)": "No residual activity"}, {"compound": "COC(=O)CSc1cc(/N=c2\\sc(=O)n3n2CCCC3)c(F)cc1Cl", "note": "[Fluthiacet-methyl]", "residual activity (in words)": "No residual activity"}, {"compound": "CS(=O)(=O)NC(=O)c1cc(Oc2ccc(C(F)(F)F)cc2Cl)ccc1[N+](=O)[O-]", "note": "[Fomesafen]", "residual activity": "12-month residual activity"}, {"compound": "CP(=O)(O)CCC(N)C(=O)O", "note": "(stereo not drawn) [Glufosinate]", "residual activity (in words)": "Kills shoots and roots, short residual activity"}, {"compound": "Cc1cnc(C2=NC(=O)C(C)(C(C)C)N2)c(C(=O)O)c1", "note": "(stereo not drawn) [Imazapic]", "residual activity (in words)": "Four months residual activity"}, {"compound": "CC(C)C1(C)N=C(c2ncccc2C(=O)O)NC1=O", "note": "(stereo not drawn) [Imazapyr]", "residual activity (in words)": "Four months residual activity"}, {"compound": "CCc1cnc(C2=NC(C)(C(C)C)C(=O)N2)c(C(=O)O)c1", "note": "(stereo not drawn) [Imazethapyr]", "residual activity (in words)": "Two to three months residual"}, {"compound": "CC(C)N(C(=O)n1cnn(-c2ccc(Cl)cc2Cl)c1=O)c1ccc(F)cc1F", "note": "[Ipfencarbazone]", "residual activity": "70 days residual activity"}, {"compound": "CS(=O)(=O)c1cc(C(F)(F)F)ccc1C(=O)c1cnoc1C1CC1", "note": "[Isoxaflutole]", "residual activity (in words)": "No residual activity"}, {"compound": "CCOC(=O)C(C)OC(=O)c1cc(Oc2ccc(C(F)(F)F)cc2Cl)ccc1[N+](=O)[O-]", "note": "(stereo not drawn) [Lactofen]", "residual activity": "Very short residual activity (2-3 weeks)"}, {"compound": "CS(=O)(=O)c1ccc(C(=O)C2C(=O)CCCC2=O)c([N+](=O)[O-])c1", "note": "[Mesotrione]", "residual activity": "Limited residual activity (6-15 days)"}, {"compound": "CC(C)Oc1cc(-n2nc(C(C)(C)C)oc2=O)c(Cl)cc1Cl", "note": "[Oxadiazon]", "residual activity": "Moderate residual activity (2 months)"}, {"compound": "CCOc1cc(Oc2ccc(C(F)(F)F)cc2Cl)ccc1[N+](=O)[O-]", "note": "[Oxyfluorfen]", "residual": "Kills shoots and roots, 30 d residual"}, {"compound": "CCCCCCCCC(=O)O", "note": "[Pelargonic acid]", "residual activity (in words)": "No residual activity"}, {"compound": "CC(C)=C1OC(=O)N(c2cc(OC3CCCC3)c(Cl)cc2F)C1=O", "note": "[Pentoxazone]", "residual activity (in words)": "No residual activity"}, {"compound": "CCOC(=O)COc1cc(-c2nn(C)c(OC(F)F)c2Cl)c(F)cc1Cl", "note": "[Pyraflufen-ethyl]", "residual activity (in words)": "Burndown activity with no residual"}, {"compound": "Cc1nn(C)c(OCC(=O)c2ccccc2)c1C(=O)c1ccc(Cl)cc1Cl", "note": "[Pyrazoxyfen]", "residual activity": "4-15 days residual activity"}, {"compound": "CC(C)N(C)S(=O)(=O)NC(=O)c1cc(-n2c(=O)cc(C(F)(F)F)n(C)c2=O)c(F)cc1Cl", "note": "[Saflufenacil]", "residual activity (in words)": "No residual activity"}, {"compound": "CS(=O)(=O)c1ccc(C(=O)C2C(=O)CCCC2=O)c(Cl)c1", "note": "[Sulcotrione]", "residual activity (in words)": "No residual activity"}, {"compound": "CS(=O)(=O)c1ccc(C(=O)C2C(=O)CCCC2=O)c(Cl)c1COCC(F)(F)F", "note": "[Tembotrione]", "residual activity": "14 days residual activity"}, {"compound": "COC(=O)CCNC(=O)C(C)Sc1cc(-n2c(=O)cc(C(F)(F)F)n(C)c2=O)c(F)cc1Cl", "note": "(stereo not drawn) [Tiafenacil]", "residual activity (in words)": "Burndown with no residual activity"}, {"compound": "Cc1c(C(=O)c2cnn(C)c2O)ccc(S(C)(=O)=O)c1C1=NOCC1", "note": "[Topramezone]", "residual activity": "14 days residual activity"}, {"compound": "C#CCN1C(=O)C(F)(F)Oc2cc(F)c(-n3c(=O)n(C)c(=S)n(C)c3=O)cc21", "note": "[Trifludimoxazin]", "residual activity": "Short residual activity of 40 days"}, {"compound": "Capric/decanoate acid of salt thereof", "residual activity (in words)": "No residual activity"}, {"compound": "Oxadiargyl", "residual activity (in words)": "Pre-emergent active"}]}, {"system": "Crimson Clover, Annual Rye Grass, Rescue Grass", "assay": "Field experiment: early burndown and herbicidal efficacy of glufosinate + diquat compositions (FIGS. 3A-3C)", "type": "in vivo", "details": "burndown agent combined with glufosinate", "source_text": "“Herbicidal efficacy” or “herbicidal effectiveness,” as used herein, refers to any observable measure of control of weed or grass growth, which can include one or more of the actions of (1) killing, (2) inhibiting growth, reproduction or proliferation, and (3) removing, destroying, or otherwise diminishing the occurrence and activity of weeds or grasses. The herbicidal effectiveness data set forth herein report “control” as a percentage following a standard procedure in the art which reflects a visual assessment of plant mortality and growth reduction by comparison with untreated plants, made by technicians specially trained to make and record such observations. In all cases, a single technician makes all assessments of percent control within any one experiment or trial.\nVarious examples and comparatives examples of the weed control compositions and RTU solutions were prepared according to Table 2. The RTU solutions were applied to test fields with various types of weeds and grasses, and the burndown effect and/or the long-term efficacy of the test RTU solutions are observed and compared. Equipment, sprayer, and selected operating conditions for application of the RTU compositions to the test areas are provided in Table 3.\nAll field experiments were set in 1 m^2 plots replicated four times in a randomized complete block design with appropriate industry standards and untreated controls. The example compositions and comparative example compositions according to Table 2 were tested in the field experiments. […] Plots were sprayed once, and then assessed for speed to visible activity, percent (%) weed control, and percent residual control over time to determine burndown activity, speed to kill, extended control and residual pre-emergent activity.", "values": [{"compound": "CCCCCCCCC(=O)O.N", "note": "[Ammonium nonanoate]", "burndown compared to glufosinate alone": "enhanced burndown compared to glufosinate alone", "effectiveness as burndown agent, ammonium nonanoate versus Diquat": "superior effectiveness compared to Diquat"}, {"compound": "c1cc[n+]2c(c1)-c1cccc[n+]1CC2", "note": "[Diquat]", "burndown compared to glufosinate alone": "enhanced burndown compared to glufosinate alone"}]}]}
